Source: patent US8362065B2, “Carbazole carboxamide compounds useful as kinase inhibitors” (Bristol-Myers Squibb Company, priority 2008, dated 2013)
Structures can show the parent of a compound that is named as a salt.

Target: T1, human recombinant Btk (Homo sapiens, UniProt Q06187)
T1 construct: purchased Invitrogen Corporation
Assay: Human Recombinant Btk Enzyme Assay
Format: biochemical
Conditions: human recombinant Btk 1 nM, ATP 20 μM, 60 min at room temperature; read-out: IC50 for Inhibition of Btk

T1 sequence (Q06187 whole entry): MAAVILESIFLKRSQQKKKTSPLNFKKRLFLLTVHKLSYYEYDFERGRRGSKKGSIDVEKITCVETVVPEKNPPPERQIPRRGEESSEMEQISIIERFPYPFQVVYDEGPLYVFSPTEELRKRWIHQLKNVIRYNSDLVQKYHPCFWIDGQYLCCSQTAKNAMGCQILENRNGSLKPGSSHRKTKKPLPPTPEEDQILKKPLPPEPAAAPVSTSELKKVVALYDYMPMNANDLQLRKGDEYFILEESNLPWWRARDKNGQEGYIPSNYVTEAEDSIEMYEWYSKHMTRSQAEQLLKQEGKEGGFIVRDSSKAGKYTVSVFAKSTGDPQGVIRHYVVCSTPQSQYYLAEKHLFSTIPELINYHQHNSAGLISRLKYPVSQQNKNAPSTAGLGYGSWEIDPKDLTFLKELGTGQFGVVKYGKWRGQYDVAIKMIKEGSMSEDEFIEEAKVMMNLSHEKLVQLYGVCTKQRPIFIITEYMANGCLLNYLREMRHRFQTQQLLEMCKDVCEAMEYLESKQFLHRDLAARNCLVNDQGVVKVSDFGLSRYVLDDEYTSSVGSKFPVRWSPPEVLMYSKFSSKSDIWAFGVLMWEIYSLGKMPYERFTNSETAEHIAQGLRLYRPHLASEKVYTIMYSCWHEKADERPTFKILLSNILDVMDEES

Point of comparison: `CN1CCN(C(=O)c2ccc3c(c2)[nH]c2c(C(N)=O)ccc(-c4cccc(-c5ccccc5)c4)c23)CC1` [Example 3-48], IC50 0.39 µM. Against it:
- CN1CCN(C(=O)c2ccc3c(c2)[nH]c2c(C(N)=O)ccc(-c4cccc5[nH]c(C(=O)Nc6ccc(F)cc6)cc45)c23)CC1 [Example 2-25, 4-(2-(4-fluorophenylcarbamoyl)-1H-indol-4-yl)-7-(4-methylpiperazine-1-carbonyl)-9H-carbazole-1-carboxamide] — 7.9-fold higher, 3.1 µM
- CC(=O)Nc1ccc(F)c(-c2ccc(C(N)=O)c3[nH]c4cc(C(=O)N5CCN(C)CC5)ccc4c23)c1 [Example 2-35, 4-(5-acetamido-2-fluorophenyl)-7-(4-methylpiperazine-1-carbonyl)-9H-carbazole-1-carboxamide] — 24-fold lower, 0.016 µM
- CN1CCN(C(=O)c2ccc3c(c2)[nH]c2c(C(N)=O)ccc(-c4cc(NC(=O)c5ccc(F)cc5)ccn4)c23)CC1 [Example 2-43, 4-(4-(4-fluorobenzamido)pyridin-2-yl)-7-(4-methylpiperazine-1-carbonyl)-9H-carbazole-1-carboxamide] — within 1.5-fold, 0.52 µM
- NC(=O)c1ccc(-c2ccccc2F)c2c1[nH]c1cc(C(=O)N3CCOCC3)ccc12 [Example 3-9, 4-(2-fluorophenyl)-7-(morpholine-4-carbonyl)-9H-carbazole-1-carboxamide] — 23-fold lower, 0.017 µM
- CCOc1ccc2ccccc2c1-c1ccc(C(N)=O)c2[nH]c3cc(C(=O)N4CCN(C)CC4)ccc3c12 [Example 3-18] — 6.9-fold higher, 2.7 µM
- CN1CCN(C(=O)c2ccc3c(c2)[nH]c2c(C(N)=O)ccc(-c4cccc5cccnc45)c23)CC1 [Example 3-19] — 4.6-fold higher, 1.8 µM
- CCOc1ccc(F)c(-c2ccc(C(N)=O)c3[nH]c4cc(C(=O)N5CCN(C)CC5)ccc4c23)c1 [Example 3-39] — 24-fold lower, 0.016 µM
- CN1CCN(C(=O)c2ccc3c(c2)[nH]c2c(C(N)=O)ccc(-c4ccccc4)c23)CC1 [Example 3-45] — 24-fold lower, 0.016 µM
- CN1CCN(C(=O)c2ccc3c(c2)[nH]c2c(C(N)=O)ccc(-c4cccc5c4oc4ccccc45)c23)CC1 [Example 3-49] — 1.8-fold higher, 0.69 µM
- CN1CCN(C(=O)c2ccc3c(c2)[nH]c2c(C(N)=O)ccc(-c4ccccc4Cl)c23)CC1 [Example 3-69] — 26-fold lower, 0.015 µM
- CN1CCN(C(=O)c2ccc3c(c2)[nH]c2c(C(N)=O)ccc(-c4cccc5[nH]c(C(=O)N6CCCC6)cc45)c23)CC1 [Example 3-75] — 2.4-fold higher, 0.92 µM
- CN1CCN(C(=O)c2ccc3c(c2)[nH]c2c(C(N)=O)ccc(-c4c[nH]c5cc(-c6ccc(F)cc6)ccc45)c23)CC1 [Example 3-83] — 2.4-fold higher, 0.94 µM
- Cc1c(-c2ccc(C(N)=O)c3[nH]c4c(c23)CCC(C(=O)NCCCN(C)C)C4)cccc1N1Cc2ccccc2C1=O (stereo not shown) [Example 3-101] — 22-fold lower, 0.018 µM
- CC(C)(C)OC(=O)n1cc(-c2ccc(C(N)=O)c3[nH]c4c(c23)CCC(C(=O)NC2CCOCC2)C4)cn1 (stereo not shown) [Example 3-116] — 4.1-fold higher, 1.6 µM
- Cc1c(-c2ccc(C(N)=O)c3[nH]c4c(c23)CCC(C(=O)N2CCN(C)CC2)C4)cccc1N1Cc2ccccc2C1=O (stereo not shown) [Example 3-122] — 22-fold lower, 0.018 µM
- Cc1c(-c2ccc(C(N)=O)c3[nH]c4c(c23)CCC(C(=O)N(C)C2CCN(C)CC2)C4)cccc1N1Cc2ccc(C(F)(F)F)cc2C1=O (stereo not shown) [Example 3-130] — 200-fold lower, 0.002 µM
- Cc1nc(N)sc1-c1ccc(C(N)=O)c2[nH]c3c(c12)CCC(C(=O)NC1CCOCC1)C3 (stereo not shown) [Example 4-3, 5-(2-amino-4-methylthiazol-5-yl)-N^2-(tetrahydro-2H-pyran-4-yl)-2,3,4,9-tetrahydro-1H-carbazole-2,8-dicarboxamide] — the same, 0.39 µM
- Cc1c(NC(=O)c2cccnc2)cccc1-c1ccc(C(N)=O)c2[nH]c3cc(C(=O)N4CCN(C)CC4)ccc3c12 [Example 5-7] — 22-fold lower, 0.018 µM
- Cc1c(NC(=O)c2ncc[nH]2)cccc1-c1ccc(C(N)=O)c2[nH]c3cc(C(=O)N4CCN(C)CC4)ccc3c12 [Example 5-9, 4-(3-(1H-imidazole-2-carboxamido)-2-methylphenyl)-7-(4-methylpiperazine-1-carbonyl)-9H-carbazole-1-carboxamide (prepared as the TFA salt)] — 210-fold lower, 0.0019 µM
- Cc1c(NC(=O)c2nc(C(C)C)cs2)cccc1-c1ccc(C(N)=O)c2[nH]c3cc(C(=O)N4CCN(C)CC4)ccc3c12 [Example 5-16] — 22-fold lower, 0.018 µM
- Cc1c(NC(=O)c2ncccc2O)cccc1-c1ccc(C(N)=O)c2[nH]c3cc(C(=O)N4CCN(C)CC4)ccc3c12 [Example 5-19, 4-(3-(3-hydroxypicolinamido)-2-methylphenyl)-7-(4-methylpiperazine-1-carbonyl)-9H-carbazole-1-carboxamide (prepared as the TFA salt)] — 23-fold lower, 0.017 µM
- Cc1c(NC(=O)C2(c3ccc(F)cc3)CC2)cccc1-c1ccc(C(N)=O)c2[nH]c3cc(C(=O)N4CCN(C)CC4)ccc3c12 [Example 5-42] — 26-fold lower, 0.015 µM
- Cc1c(NC(=O)C(C)(C)c2ccc(Cl)cc2)cccc1-c1ccc(C(N)=O)c2[nH]c3cc(C(=O)N4CCN(C)CC4)ccc3c12 [Example 5-44] — 24-fold lower, 0.016 µM
- Cc1ccc(C(=O)Nc2cccc(-c3ccc(C(N)=O)c4[nH]c5cc(C(=O)N6CCN(C)CC6)ccc5c34)c2C)cc1 [Example 5-58, 4-(2-methyl-3-(4-methylbenzamido)phenyl)-7-(4-methylpiperazine-1-carbonyl)-9H-carbazole-1-carboxamide (prepared as the TFA salt)] — 180-fold lower, 0.0022 µM
- Cc1c(NC(=O)CC(C)C)cccc1-c1ccc(C(N)=O)c2[nH]c3cc(C(=O)N4CCN(C)CC4)ccc3c12 [Example 5-62, 4-(2-methyl-3-(3-methylbutanamido)phenyl)-7-(4-methylpiperazine-1-carbonyl)-9H-carbazole-1-carboxamide (prepared as the TFA salt)] — 23-fold lower, 0.017 µM
- Cc1c(NC(=O)c2ccc(S(N)(=O)=O)cc2)cccc1-c1ccc(C(N)=O)c2[nH]c3cc(C(=O)N4CCN(C)CC4)ccc3c12 [Example 5-69, 4-(2-methyl-3-(4-sulfamoylbenzamido)phenyl)-7-(4-methylpiperazine-1-carbonyl)-9H-carbazole-1-carboxamide (prepared as the TFA salt)] — 200-fold lower, 0.002 µM
- Cc1c(NC(=O)C2(C#N)CC2)cccc1-c1ccc(C(N)=O)c2[nH]c3cc(C(=O)N4CCN(C)CC4)ccc3c12 [Example 5-73, 4-(3-(1-cyanocyclopropanecarboxamido)-2-methylphenyl)-7-(4-methylpiperazine-1-carbonyl)-9H-carbazole-1-carboxamide (prepared as the TFA salt)] — 22-fold lower, 0.018 µM
- Cc1nc(NC(=O)c2ccccc2)sc1-c1ccc(C(N)=O)c2[nH]c3c(c12)CCC(C(=O)NC1CCOCC1)C3 (stereo not shown) [Example 5-86] — 2.3-fold higher, 0.91 µM
- Cc1c(NC(=O)Nc2ccccc2)cccc1-c1ccc(C(N)=O)c2[nH]c3cc(C(=O)N4CCN(C)CC4)ccc3c12 [Example 8-3, 4-(2-methyl-3-(3-phenylureido)phenyl)-7-(4-methylpiperazine-1-carbonyl)-9H-carbazole-1-carboxamide] — 24-fold lower, 0.016 µM
- Cc1c(NS(=O)(=O)CCCCl)cccc1-c1ccc(C(N)=O)c2[nH]c3cc(C(=O)N4CCN(C)CC4)ccc3c12 [Example 10-4, 4-(3-(3-chloropropylsulfonamido)-2-methylphenyl)-7-(4-methylpiperazine-1-carbonyl)-9H-carbazole-1-carboxamide] — 23-fold lower, 0.017 µM
- Cc1c(Nc2nccc3ccccc23)cccc1-c1ccc(C(N)=O)c2[nH]c3cc(C(=O)N4CCN(C)CC4)ccc3c12 [Example 11-1, 4-(3-(isoquinolin-1-ylamino)-2-methylphenyl)-7-(4-methylpiperazine-1-carbonyl)-9H-carbazole-1-carboxamide] — 26-fold lower, 0.015 µM
- Cc1c(-c2ccc(C(N)=O)c3[nH]c4cc(C(=O)N5CCN(C)CC5)ccc4c23)cccc1N1CCCS1(=O)=O [Example 12-1, 4-(3-(1,1-dioxoisothiazolidin-2-yl)-2-methylphenyl)-7-(4-methylpiperazine-1-carbonyl)-9H-carbazole-1-carboxamide] — 22-fold lower, 0.018 µM
- CN1CCN(C(=O)c2ccc3c(c2)[nH]c2c(C(N)=O)ccc(N4CCC[C@@H](N)C4)c23)CC1 [Example 17-1, (R)-4-(3-aminopiperidin-1-yl)-7-(4-methylpiperazine-1-carbonyl)-9H-carbazole-1-carboxamide] — 2.8-fold higher, 1.1 µM
- CN1CCN(C(=O)c2ccc3c(c2)[nH]c2c(C(N)=O)ccc(N4CCC[C@@H](NC(=O)Nc5nccs5)C4)c23)CC1 [Example 19-1, (R)-7-(4-methylpiperazine-1-carbonyl)-4-(3-(3-thiazol-2-ylureido)piperidin-1-yl)-9H-carbazole-1-carboxamide] — 23-fold lower, 0.017 µM
- CN1CCN(C(=O)c2ccc3c(c2)[nH]c2c(C(N)=O)ccc(N4CCCCC4=O)c23)CC1 [Example 20-1, 7-(4-methylpiperazine-1-carbonyl)-4-(2-oxopiperidin-1-yl)-9H-carbazole-1-carboxamide] — within 1.5-fold, 0.51 µM
- Cc1c(NC(=O)c2ccc(F)cc2)cccc1-c1ccc(C(N)=O)c2[nH]c3cc(C(N)=O)ccc3c12 [Example 24-1, 4-(3-(4-fluorobenzamido)-2-methylphenyl)-9H-carbazole-1,7-dicarboxamide] — 23-fold lower, 0.017 µM
- Cc1c(NC(=O)c2ccc(F)cc2)cccc1-c1ccc(C(N)=O)c2[nH]c3cc(C(=O)N4CCN(CCO)CC4)ccc3c12 [Example 24-17, 4-(3-(4-fluorobenzamido)-2-methylphenyl)-7-(4-(2-hydroxyethyl)piperazine-1-carbonyl)-9H-carbazole-1-carboxamide (prepared as the TFA salt)] — 26-fold lower, 0.015 µM
- COc1cccc(NC(=O)c2ccc3c(c2)[nH]c2c(C(N)=O)ccc(-c4cccc(NC(=O)c5ccc(F)cc5)c4C)c23)c1 [Example 24-33, 4-(3-(4-fluorobenzamido)-2-methylphenyl)-N^7-(3-methoxyphenyl)-9H-carbazole-1,7-dicarboxamide (prepared as the TFA salt)] — within 1.5-fold, 0.47 µM
- Cc1c(NC(=O)c2ccc(F)cc2)cccc1-c1ccc(C(N)=O)c2[nH]c3cc(C(=O)Nc4ccc(F)cc4)ccc3c12 [Example 24-34, 4-(3-(4-fluorobenzamido)-2-methylphenyl)-N^7-(4-fluorophenyl)-9H-carbazole-1,7-dicarboxamide (prepared as the TFA salt)] — within 1.5-fold, 0.41 µM
